For series [1] the following is noted: cited from earlier work.
For series [2] the following is noted: cited from earlier work. The source holds these as a separate data set.
The conditions of series [3]: rat, in vivo, ip.
Experimental: The solution was divided into three equal parts not exceeding 2 mL and injected intraperitoneally into each rat. Urine and feces were collected on an adsorbent pad overnight. At 24 hours, the rats were killed, dissected and each of the below organs were weighed and counted in a dose calibrator.
Series [4] deals with GH release from primary cultures of rat pituitary cells (somatostatin subtype 2 rat receptor related system) (Rattus norvegicus, UniProt P30680). The series is described as follows: Inhibition of GH release from primary cultures of rat pituitary cells. Type of series: cell-based. Particulars: GH stimulated with 1 nM GRH(1-29)NH2, 3 h. How it is done: This is a primary system for evaluating SRIF analog potency and can be considered a somatostatin subtype 2 rat receptor related system which historically also correlates well with human subtype 2 binding.
Sequence of GH release from primary cultures of rat pituitary cells (somatostatin subtype 2 rat receptor related system) (P30680 whole entry): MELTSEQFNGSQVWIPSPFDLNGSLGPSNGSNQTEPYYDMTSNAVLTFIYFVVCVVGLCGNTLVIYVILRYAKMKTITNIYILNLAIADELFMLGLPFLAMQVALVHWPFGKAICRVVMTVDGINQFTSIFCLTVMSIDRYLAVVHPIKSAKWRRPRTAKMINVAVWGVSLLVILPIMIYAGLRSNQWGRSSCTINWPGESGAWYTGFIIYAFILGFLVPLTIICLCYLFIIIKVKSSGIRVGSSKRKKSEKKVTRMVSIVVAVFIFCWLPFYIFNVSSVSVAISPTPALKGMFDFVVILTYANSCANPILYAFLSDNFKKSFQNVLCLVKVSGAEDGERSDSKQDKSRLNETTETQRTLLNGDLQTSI
Anterior pituitaries from adult male rats weighing 200-250 g and housed under controlled conditions (lights on from 0500-1900 h), are dispersed using aseptic techniques by a trypsin/DNase method. The dispersed cells are diluted with sterile-filtered Dulbecco's modified Eagle medium (MEM) (Gibco Laboratories, Grand Island, N.Y. (GIBCO)), which is supplemented with 2.5% fetal calf serum (GIBCO), 3% horse serum (GIBCO), 10% fresh rat serum (stored on ice for no longer than 1 h) from the pituitary donors, 1% MEM nonessential amino acids (GIBCO), gentamycin (10 ng/ml; Sigma), and nystatin (10,000 U/ml; GIBCO). The cells are counted with a hemacytometer (approximately 2,000,000 cells per pituitary) and randomly plated at a density of 200,000 cells per well (Co-star cluster 24; Rochester Scientific Co., Rochester, N.Y.). […]
In preparation for a hormone challenge, the cells are washed 3× with medium 199 (GIBCO) to remove old medium and floating cells. […] GH in plasma and media is measured by a standard double antibody RIA using components supplied by the NIDDK and the National Hormone and Pituitary Program.

For series [5] the following is noted: ×5 in mice; cited from earlier work.
The subject of series [6] is neuroblastoma IMR-32 cells. Briefly: CellTiter 96 tumor cell proliferation assay. In kind it is cell-based. Particulars: conjugate compared to non-conjugated methotrexate. Here is the method: A CellTiter 96 cell proliferation kit was used according to the described protocols (Promega Corporation, Madison, Wis.)). Culture medium (50 μl) containing various concentrations of different peptides was added respectively in each well of the 96-well kit plates followed by 50 μl of a suspension containing 5,000 cultured IMR-32 tumor cells. The plate was incubated at 37° C. for different times up to and including 7 days in a humidified, 5% CO2 atmosphere. Kit dye solution (15 μl ) was added to each well and the plate incubated the plates at 37° C. for 4 hours in a humidified, 5% CO2 atmosphere. After 4 hours, 100 μl of the solubilization/stop solution were added to each well and incubation was continued at 37° C. for 1 hour or more until complete solubilization of the formazan crystals occurred. Absorbencies of individual well solutions were then measured at 570 nm wavelength using a 96 well plate reader.

For series [7] the following is noted: 1×iv, mice; cited from earlier work.

Like-named read-outs stand apart in the source and are kept apart here.

Regarding `NC(=O)c1ncn2c(=O)n(CCCl)nnc12` [mitozolomide], the MTD in series [1] (in vivo) is more than 400 mg/m^2.

On to `N.N.[Cl][Pt][Cl]` [Cis-Pt], for which the MTD in series [2] (in man) is listed as 100 mg/m^2.

One may read the IC50 as the concentration needed to halve the response being measured. Read a low IC50 as inhibition by little substance. In the case of “D-Ser-D-Ser-D-Ser-D-Ser-D-Ser-L-Lys-D-Tyr-D-Ser-cyclo[L-Cys-L-Phe-D-Trp-L-Lys-L-Thr-L-Cys]-L-Thr-NH2 [JF-08-53]”, the “Elimination of labeled peptide in urine and feces (FIG. 2)” value in series [3] was “rapid and high efficiency elimination”. The molecule further came in with an IC50 in series [4] of 0.086 nM.

`Nc1nc(F)nc2c1ncn2[C@@H]1O[C@H](COP(=O)(O)O)[C@@H](O)[C@@H]1O` [Fludarabine-P04]: in series [1] (×5 days), the MTD is 25 mg/m^2/day.

For the molecule `Nc1ccn([C@@H]2O[C@H](CO)[C@@H](O)[C@@H]2O)c(=O)n1` [cytarabine], the MTD in series [1] (in vivo) was 100 mg/m^2/day.

Regarding `CCCCCOC(=O)Nc1nc(=O)n([C@@H]2O[C@H](C)[C@@H](O)[C@H]2O)cc1F` [capecitabine], the MTD in series [1] (orally) is on record as 2.5 g/m^2.

In the case of `CCC1=C[C@@H]2CN(C1)Cc1c([nH]c3ccccc13)[C@@](C(=O)OC)(c1cc3c(cc1OC)N(C)[C@H]1[C@@](O)(C(=O)OC)[C@H](OC(C)=O)[C@]4(CC)C=CCN5CC[C@]31[C@@H]54)C2` [vinorelbine], in series [1] (in vivo), the MTD is reported as 30 mg/m^2/wk.

Turning to `O=c1[nH]c(=O)n([C@H]2C[C@H](O)[C@@H](CO)O2)cc1F` [FUDR], the figures for the MTD in series [5] and in series [2] (in human i.a.) were 100 mg/kg and 0.6 mg/kg/day, respectively.

With `CCc1c2c(nc3ccc(OC(=O)N4CCC(N5CCCCC5)CC4)cc13)-c1cc3c(c(=O)n1C2)COC(=O)[C@]3(O)CC` [irinotecan], the MTD in series [1] (1×/wk depending on patient response) is 50-150 mg/m^2.

`O=C1c2c(O)ccc(O)c2C(=O)c2c(NCCNCCO)ccc(NCCNCCO)c21` [mitoxantrone]: in series [1] (in vivo), the MTD is reported as 12-14 mg/m^2.

In the case of `CN(Cc1cnc2nc(N)nc(N)c2n1)c1ccc(C(=O)N[C@@H](CCC(=O)O)C(=O)O)cc1` [methotrexate], the MTD was less than 500 mg/m^2 in series [1] (i.v. w/o leuco) and 15 gm/m^2 in series [1] (i.v.+leuco.). The “Inhibitory effects on proliferation of IMR-32 cells (potency comparison, FIG. 1)” value in series [6] was “equivalent potencies”.

For the molecule `COc1cc([C@@H]2c3cc4c(cc3[C@@H](O[C@@H]3O[C@@H]5CO[C@@H](C)O[C@H]5[C@H](O)[C@H]3O)[C@H]3COC(=O)[C@H]23)OCO4)cc(OC)c1O` [etoposide], the MTD in series [2] (in man) is on record as 100 mg/m^2.

Take `O=c1[nH]cc(F)c(=O)[nH]1` [Peptide 5-FU, 5-FU]: the MTD in series [1] (×5 days) is reported as 500 mg/m^2/day.

For the molecule `Nc1ccn([C@@H]2O[C@H](CO)[C@@H](O)C2(F)F)c(=O)n1` [gemcitabine], the MTD in series [1] (in vivo) is on record as 1000 mg/m^2.

For `CC(=O)O[C@@]12CO[C@@H]1C[C@H](O)[C@@]1(C)C(=O)[C@H](O)C3=C(C)[C@@H](OC(=O)[C@H](O)[C@@H](NC(=O)OC(C)(C)C)c4ccccc4)C[C@@](O)([C@@H](OC(=O)c4ccccc4)[C@H]21)C3(C)C` [Docetaxel], the MTD in series [1] (in vivo) was 60-100 mg/m^2.

Take `CC[C@]1(O)C[C@H]2CN(CCc3c([nH]c4ccccc34)[C@@](C(=O)OC)(c3cc4c(cc3OC)N(C=O)[C@H]3[C@@](O)(C(=O)OC)[C@H](OC(C)=O)[C@]5(CC)C=CCN6CC[C@]43[C@@H]65)C2)C1` [vincristine]: in series [1] (in vivo), the MTD is listed as 1.4 mg/m^2.

As for bleomycin, the MTD in series [1] (in vivo) is 20 mg/m^2.

Turning to `NC(=O)NO` [Hydroxyurea], the MTD in series [2] (in man) was 35 mg/kg/day.

For the molecule `N.N.O=C([O-])C1(C(=O)[O-])CCC1.[Pt+2]` [carbo-Pt], the MTD in series [2] (in man) is 360 mg/m^2.

For the molecule `CC[C@@]1(O)C(=O)OCc2c1cc1n(c2=O)Cc2cc3c(CN(C)C)c(O)ccc3nc2-1` [topotecan], in series [7], the LD10 is given as 75 mg/m^2. In addition, the MTD in series [2] (in humans) is 1.5 mg/m^2/day.

Values taken from US7326685B2, “Diagnostic or therapeutic somatostatin or bombesin analog conjugates and uses thereof” (The Administrators of the Tulane Educational Fund, priority 2001, dated 2008).
